Measured values reported in US4597901A, “β-indolylalanyl or β-indolylglycinyl vasopressin antagonists” (SmithKline Beckman Corporation, priority 1984, dated 1986).
*1 amine or outer side, *2 acyl side, *3 side chain or, on linkers, in order; H or OH if unused. Where a SMILES comes first, the peptide text is derived from it. Bridges are numbered along the chain shown (N, C = ends). [ ]: non-standard residue; d: D form. The star is where a group is joined. X1 = O=C(CC1(S[*:2])CCCCC1)[*:1]; For = O=C*

Target: vasopressin receptors [V2 -receptors] (Sus scrofa, UniProt P32307)
Sequence (P32307 whole entry): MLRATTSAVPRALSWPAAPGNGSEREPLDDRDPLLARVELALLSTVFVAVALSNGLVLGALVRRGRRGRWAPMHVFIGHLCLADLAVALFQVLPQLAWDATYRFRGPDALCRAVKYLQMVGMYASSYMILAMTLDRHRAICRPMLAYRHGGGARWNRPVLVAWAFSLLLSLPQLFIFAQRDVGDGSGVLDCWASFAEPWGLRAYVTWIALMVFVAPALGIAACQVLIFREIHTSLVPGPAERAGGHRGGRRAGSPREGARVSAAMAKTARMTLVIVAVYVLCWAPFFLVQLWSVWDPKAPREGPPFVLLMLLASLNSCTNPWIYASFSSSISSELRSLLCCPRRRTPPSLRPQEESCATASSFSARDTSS
Experiment: biochemical
From the text: Details of the in vitro protocols are in F. L. Stassen et al., J. of Pharm. Exp. Ther. 233, 50-54 (1982) but the calculations of cyclase activity and binding potential at the receptor site are as follows:
Test Procedure for Binding Assay:
These values represent total and non-specific binding, respectively.

Compound	Kb [nM]
CC(C)[C@@H]1NC(=O)[C@H](Cc2ccccc2)NC(=O)[C@@H](Cc2cn(C=O)c3ccccc23)NC(=O)CC2(CCCCC2)SSC[C@@H](C(=O)N2CCC[C@H]2C(=O)N[C@@H](CCCNC(=N)N)C(=O)NCC(N)=O)NC(=O)[C@H](CC(N)=O)NC1=O [D-Trp (For), [1-(β-mercapto-β,β-cyclopentamethylenepropionic acid)-2-D-tryptophan-(N-formyl)-4-valine-8-arginine]vasopressin] ([dW](For)FVNCPRG-NH2; linker N-5 via X1)	78
CC(C)[C@@H]1NC(=O)[C@H](Cc2ccccc2)NC(=O)[C@H](Cc2cn(C=O)c3ccccc23)NC(=O)CC2(CCCCC2)SSC[C@@H](C(=O)N2CCC[C@H]2C(=O)N[C@@H](CCCNC(=N)N)C(=O)NCC(N)=O)NC(=O)[C@H](CC(N)=O)NC1=O [L-Trp (For)] (W(For)FVNCPRG-NH2; linker N-5 via X1)	840
CC(C)[C@@H]1NC(=O)[C@H](Cc2ccccc2)NC(=O)[C@H](Cc2c[nH]c3ccccc23)NC(=O)CC2(CCCCC2)SSC[C@@H](C(=O)N2CCC[C@H]2C(=O)N[C@@H](CCCNC(=N)N)C(=O)NCC(N)=O)NC(=O)[C@H](CC(N)=O)NC1=O [L-Trp] (WFVNCPRG-NH2; linker N-5 via X1)	2100
